Measurements: article PMC12090182, “Repurposing of the RIPK1-Selective Benzo[1,4]oxazepin-4-one Scaffold for the Development of a Type III LIMK1/2 Inhibitor” (ACS Chemical Biology, 2025)

Columns and labels:
Assay in all cases: scanMAX KINOMEscan (Eurofins)
Assay type in all cases: binding
[1] = target: TSSK1B (Homo sapiens, UniProt Q9BXA7); conditions: 1000 nM, read-out: Percent Control
Text: (§1) Supplement cb5c00097_si_002.xlsx, sheet "Table S6 (Eurofins Selectivity)" | column: Percent Control

[2] = target: CSNK1D (Homo sapiens, UniProt P48730); conditions: 1000 nM, read-out: Percent Control
Text: as §1

[3] = target: RSK3(Kin.Dom.2-C-terminal) (Homo sapiens, UniProt Q15349); conditions: compound concentration 100 nM; Entrez RPS6KA2; read-out: Percent Control
Text: as §1

[4] = target: MAP3K1 (Homo sapiens, UniProt Q13233); conditions: compound concentration 100 nM; Entrez MAP3K1; read-out: Percent Control
Text: as §1

[5] = target: HIPK3 (Homo sapiens, UniProt Q9H422); conditions: 1000 nM, read-out: Percent Control
Text: as §1

[6] = target: EPHA4 (Homo sapiens, UniProt P54764); conditions: read-out: Percent Control
Text: as §1

[7] = target: STK35 (Homo sapiens, UniProt Q8TDR2); conditions: compound concentration 100 nM; Entrez STK35; read-out: Percent Control
Text: as §1

[8] = target: EGFR (Homo sapiens, UniProt P00533); conditions: read-out: Percent Control
Text: as §1

[9] = target: PAK4 (Homo sapiens, UniProt O96013); conditions: 1000 nM, read-out: Percent Control
Text: as §1

[10] = target: SRPK1 (Homo sapiens, UniProt Q96SB4); conditions: 1000 nM, read-out: Percent Control
Text: as §1

[11] = target: JNK1 (Homo sapiens, UniProt P45983); conditions: compound concentration 100 nM; Entrez MAPK8; read-out: Percent Control
Text: as §1

[12] = target: MYLK (Homo sapiens, UniProt Q15746); conditions: 1000 nM, read-out: Percent Control
Text: as §1

[13] = target: SNRK (Homo sapiens, UniProt Q9NRH2); conditions: compound concentration 100 nM; Entrez SNRK; read-out: Percent Control
Text: as §1

[14] = target: ULK1 (Homo sapiens, UniProt O75385); conditions: compound concentration 100 nM; Entrez ULK1; read-out: Percent Control
Text: as §1

[15] = target: PIKFYVE (Homo sapiens, UniProt Q9Y2I7); conditions: compound concentration 100 nM; Entrez PIKFYVE; read-out: Percent Control
Text: as §1

[16] = target: EPHA3 (Homo sapiens, UniProt P29320); conditions: read-out: Percent Control
Text: as §1

[17] = target: TNIK (Homo sapiens, UniProt Q9UKE5); conditions: 1000 nM, read-out: Percent Control
Text: as §1

[18] = target: PIK3C2G (Homo sapiens, UniProt O75747); conditions: 1000 nM, read-out: Percent Control
Text: as §1

[19] = target: ERK5 (Homo sapiens, UniProt Q13164); conditions: 1000 nM, read-out: Percent Control
Text: as §1

[20] = target: WEE2 (Homo sapiens, UniProt P0C1S8); conditions: 1000 nM, read-out: Percent Control
Text: as §1

[21] = target: FAK (Homo sapiens, UniProt Q05397); conditions: 1000 nM, read-out: Percent Control
Text: as §1

[22] = target: CDKL5 (Homo sapiens, UniProt O76039); conditions: read-out: Percent Control
Text: as §1

[23] = target: CAMK1D (Homo sapiens, UniProt Q8IU85); conditions: read-out: Percent Control
Text: as §1

[24] = target: SIK (Homo sapiens, UniProt P57059); conditions: 1000 nM, read-out: Percent Control
Text: as §1

[25] = target: ACVR1 (Homo sapiens, UniProt Q04771); conditions: 1000 nM, read-out: Percent Control
Text: as §1

[26] = target: CAMK2G (Homo sapiens, UniProt Q13555); conditions: 1000 nM, read-out: Percent Control
Text: as §1

[27] = target: TGFBR2 (Homo sapiens, UniProt P37173); conditions: compound concentration 100 nM; Entrez TGFBR2; read-out: Percent Control
Text: as §1

[28] = target: TIE1 (Homo sapiens, UniProt P35590); conditions: 1000 nM, read-out: Percent Control
Text: as §1

[29] = target: SgK110 (Homo sapiens, UniProt P0C264); conditions: compound concentration 100 nM; Entrez SgK110; read-out: Percent Control
Text: as §1

[30] = target: PDGFRA (Homo sapiens, UniProt P16234); conditions: 1000 nM, read-out: Percent Control
Text: as §1

[31] = target: TYK2(JH2domain-pseudokinase) (Homo sapiens, UniProt P29597); conditions: compound concentration 100 nM; Entrez TYK2; read-out: Percent Control
Text: as §1

[32] = target: HCK (Homo sapiens, UniProt P08631); conditions: 1000 nM, read-out: Percent Control
Text: as §1

[33] = target: PKAC-beta (Homo sapiens, UniProt P22694); conditions: 1000 nM, read-out: Percent Control
Text: as §1

[34] = target: IRAK3 (Homo sapiens, UniProt Q9Y616); conditions: read-out: Percent Control
Text: as §1

[35] = target: TAOK3 (Homo sapiens, UniProt Q9H2K8); conditions: 1000 nM, read-out: Percent Control
Text: as §1

[36] = target: CDK4 (Homo sapiens, UniProt P11802); conditions: 1000 nM, read-out: Percent Control
Text: as §1

Sequence of CDKL5 (O76039 whole entry): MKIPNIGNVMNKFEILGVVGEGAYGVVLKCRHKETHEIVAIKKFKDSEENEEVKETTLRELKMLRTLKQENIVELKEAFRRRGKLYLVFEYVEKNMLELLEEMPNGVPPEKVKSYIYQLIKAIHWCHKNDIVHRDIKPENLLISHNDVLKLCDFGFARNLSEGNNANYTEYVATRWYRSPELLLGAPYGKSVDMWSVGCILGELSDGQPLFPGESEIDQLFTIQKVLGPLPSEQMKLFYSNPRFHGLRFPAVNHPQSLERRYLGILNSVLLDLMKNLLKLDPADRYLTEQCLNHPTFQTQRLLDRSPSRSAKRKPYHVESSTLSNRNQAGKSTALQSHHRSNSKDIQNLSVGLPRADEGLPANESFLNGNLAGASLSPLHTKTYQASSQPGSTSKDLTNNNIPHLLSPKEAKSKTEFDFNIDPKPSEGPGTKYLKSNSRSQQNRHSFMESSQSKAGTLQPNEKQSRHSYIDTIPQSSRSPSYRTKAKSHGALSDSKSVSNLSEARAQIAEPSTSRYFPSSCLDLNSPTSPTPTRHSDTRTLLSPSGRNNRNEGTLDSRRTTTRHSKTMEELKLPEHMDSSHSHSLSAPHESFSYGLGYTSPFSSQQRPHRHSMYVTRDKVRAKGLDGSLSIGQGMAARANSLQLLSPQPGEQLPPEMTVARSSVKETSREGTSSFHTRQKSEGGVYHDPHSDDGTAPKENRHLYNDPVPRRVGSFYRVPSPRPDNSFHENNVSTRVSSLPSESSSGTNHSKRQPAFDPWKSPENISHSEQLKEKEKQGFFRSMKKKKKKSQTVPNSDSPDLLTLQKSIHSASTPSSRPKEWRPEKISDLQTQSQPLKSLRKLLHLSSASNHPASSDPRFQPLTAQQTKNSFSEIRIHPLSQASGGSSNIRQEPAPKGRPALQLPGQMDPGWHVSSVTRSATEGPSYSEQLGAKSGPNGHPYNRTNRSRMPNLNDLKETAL
Sequence of CAMK1D (Q8IU85 whole entry): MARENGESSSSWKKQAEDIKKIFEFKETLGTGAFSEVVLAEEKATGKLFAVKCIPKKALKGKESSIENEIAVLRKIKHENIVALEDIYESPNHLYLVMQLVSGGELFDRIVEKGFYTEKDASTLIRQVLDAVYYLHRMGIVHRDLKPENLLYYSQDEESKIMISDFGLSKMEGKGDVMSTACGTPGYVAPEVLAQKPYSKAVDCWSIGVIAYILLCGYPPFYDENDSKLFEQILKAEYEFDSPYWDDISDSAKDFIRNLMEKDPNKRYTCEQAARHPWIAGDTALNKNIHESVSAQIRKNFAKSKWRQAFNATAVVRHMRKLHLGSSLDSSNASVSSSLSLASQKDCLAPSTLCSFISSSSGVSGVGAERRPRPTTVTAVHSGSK
Sequence of EPHA3 (P29320 21-983): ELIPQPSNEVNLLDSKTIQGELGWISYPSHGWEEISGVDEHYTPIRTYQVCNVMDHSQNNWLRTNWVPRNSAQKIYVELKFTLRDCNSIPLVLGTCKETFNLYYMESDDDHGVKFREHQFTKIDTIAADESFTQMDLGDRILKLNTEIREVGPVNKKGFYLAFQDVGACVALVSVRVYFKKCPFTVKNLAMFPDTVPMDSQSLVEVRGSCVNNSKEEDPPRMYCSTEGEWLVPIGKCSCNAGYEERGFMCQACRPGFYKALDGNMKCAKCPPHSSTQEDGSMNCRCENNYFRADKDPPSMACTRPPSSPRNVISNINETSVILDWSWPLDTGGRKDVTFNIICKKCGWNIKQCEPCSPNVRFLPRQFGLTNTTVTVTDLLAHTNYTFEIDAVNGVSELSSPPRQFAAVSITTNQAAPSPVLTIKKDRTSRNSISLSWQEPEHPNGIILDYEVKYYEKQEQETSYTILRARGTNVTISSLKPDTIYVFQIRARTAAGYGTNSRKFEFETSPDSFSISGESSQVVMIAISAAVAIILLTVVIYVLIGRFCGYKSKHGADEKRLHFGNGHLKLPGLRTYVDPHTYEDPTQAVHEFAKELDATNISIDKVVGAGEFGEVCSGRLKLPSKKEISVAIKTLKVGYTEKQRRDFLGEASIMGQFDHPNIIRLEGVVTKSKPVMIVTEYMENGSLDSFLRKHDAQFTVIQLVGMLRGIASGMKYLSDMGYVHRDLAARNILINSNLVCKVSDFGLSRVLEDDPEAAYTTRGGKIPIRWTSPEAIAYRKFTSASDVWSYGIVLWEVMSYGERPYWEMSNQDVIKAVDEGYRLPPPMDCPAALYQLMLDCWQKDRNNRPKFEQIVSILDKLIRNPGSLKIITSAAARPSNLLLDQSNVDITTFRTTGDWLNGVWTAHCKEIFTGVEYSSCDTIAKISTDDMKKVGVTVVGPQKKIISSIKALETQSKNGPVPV
Sequence of EGFR (P00533 25-1210): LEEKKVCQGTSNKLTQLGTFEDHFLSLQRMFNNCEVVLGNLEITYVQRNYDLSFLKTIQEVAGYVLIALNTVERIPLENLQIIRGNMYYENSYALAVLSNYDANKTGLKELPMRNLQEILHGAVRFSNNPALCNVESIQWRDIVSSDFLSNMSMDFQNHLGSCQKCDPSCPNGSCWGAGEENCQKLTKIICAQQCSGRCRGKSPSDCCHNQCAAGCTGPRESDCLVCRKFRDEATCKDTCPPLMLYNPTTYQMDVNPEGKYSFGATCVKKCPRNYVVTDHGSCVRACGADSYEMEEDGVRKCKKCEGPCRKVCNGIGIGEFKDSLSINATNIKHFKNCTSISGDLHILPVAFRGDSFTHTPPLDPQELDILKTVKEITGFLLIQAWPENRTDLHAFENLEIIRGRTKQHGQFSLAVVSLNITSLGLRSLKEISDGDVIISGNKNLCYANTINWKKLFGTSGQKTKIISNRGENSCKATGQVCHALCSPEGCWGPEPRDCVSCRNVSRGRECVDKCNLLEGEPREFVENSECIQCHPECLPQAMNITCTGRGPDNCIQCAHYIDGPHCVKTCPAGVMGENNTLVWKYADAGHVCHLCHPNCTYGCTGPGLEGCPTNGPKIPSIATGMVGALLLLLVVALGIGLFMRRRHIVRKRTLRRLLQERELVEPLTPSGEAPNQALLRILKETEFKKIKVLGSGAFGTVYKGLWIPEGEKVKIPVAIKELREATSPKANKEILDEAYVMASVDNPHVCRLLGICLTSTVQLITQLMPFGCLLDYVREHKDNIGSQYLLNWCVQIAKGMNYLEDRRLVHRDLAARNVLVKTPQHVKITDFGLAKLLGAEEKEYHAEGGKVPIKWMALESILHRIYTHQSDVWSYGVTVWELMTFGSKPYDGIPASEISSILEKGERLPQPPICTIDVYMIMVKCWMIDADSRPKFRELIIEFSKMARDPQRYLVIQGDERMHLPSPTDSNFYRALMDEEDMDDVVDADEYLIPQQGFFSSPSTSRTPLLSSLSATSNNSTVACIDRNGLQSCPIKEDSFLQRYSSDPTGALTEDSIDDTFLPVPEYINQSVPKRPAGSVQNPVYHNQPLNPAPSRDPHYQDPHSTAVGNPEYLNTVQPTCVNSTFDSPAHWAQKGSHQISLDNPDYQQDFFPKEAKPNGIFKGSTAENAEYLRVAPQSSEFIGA
Sequence of EPHA4 (P54764 20-986): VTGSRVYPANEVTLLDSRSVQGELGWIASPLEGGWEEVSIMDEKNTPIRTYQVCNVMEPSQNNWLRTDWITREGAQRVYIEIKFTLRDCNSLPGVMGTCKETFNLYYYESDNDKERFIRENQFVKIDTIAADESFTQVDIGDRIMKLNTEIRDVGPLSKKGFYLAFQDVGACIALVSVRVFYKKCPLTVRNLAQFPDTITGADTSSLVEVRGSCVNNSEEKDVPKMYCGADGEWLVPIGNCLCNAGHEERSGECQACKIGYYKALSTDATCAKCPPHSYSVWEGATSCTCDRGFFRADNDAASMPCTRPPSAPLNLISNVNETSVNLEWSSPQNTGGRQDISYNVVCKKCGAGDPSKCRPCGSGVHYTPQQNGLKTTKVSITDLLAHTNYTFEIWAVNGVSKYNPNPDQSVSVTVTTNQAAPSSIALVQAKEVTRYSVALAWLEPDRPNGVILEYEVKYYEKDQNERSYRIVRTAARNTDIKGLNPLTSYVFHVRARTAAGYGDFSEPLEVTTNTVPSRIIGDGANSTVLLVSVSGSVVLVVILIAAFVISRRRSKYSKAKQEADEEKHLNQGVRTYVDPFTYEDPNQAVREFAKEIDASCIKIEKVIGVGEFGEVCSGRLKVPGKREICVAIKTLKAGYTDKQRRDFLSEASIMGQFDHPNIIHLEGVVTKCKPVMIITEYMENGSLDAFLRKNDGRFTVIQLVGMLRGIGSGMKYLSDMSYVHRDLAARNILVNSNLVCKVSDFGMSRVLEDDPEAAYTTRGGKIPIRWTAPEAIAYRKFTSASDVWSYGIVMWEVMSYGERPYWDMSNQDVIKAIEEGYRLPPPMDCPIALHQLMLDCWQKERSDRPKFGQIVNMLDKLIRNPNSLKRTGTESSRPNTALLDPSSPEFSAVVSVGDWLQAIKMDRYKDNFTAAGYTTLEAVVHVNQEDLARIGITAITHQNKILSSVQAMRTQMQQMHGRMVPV
Sequence of IRAK3 (Q9Y616 whole entry): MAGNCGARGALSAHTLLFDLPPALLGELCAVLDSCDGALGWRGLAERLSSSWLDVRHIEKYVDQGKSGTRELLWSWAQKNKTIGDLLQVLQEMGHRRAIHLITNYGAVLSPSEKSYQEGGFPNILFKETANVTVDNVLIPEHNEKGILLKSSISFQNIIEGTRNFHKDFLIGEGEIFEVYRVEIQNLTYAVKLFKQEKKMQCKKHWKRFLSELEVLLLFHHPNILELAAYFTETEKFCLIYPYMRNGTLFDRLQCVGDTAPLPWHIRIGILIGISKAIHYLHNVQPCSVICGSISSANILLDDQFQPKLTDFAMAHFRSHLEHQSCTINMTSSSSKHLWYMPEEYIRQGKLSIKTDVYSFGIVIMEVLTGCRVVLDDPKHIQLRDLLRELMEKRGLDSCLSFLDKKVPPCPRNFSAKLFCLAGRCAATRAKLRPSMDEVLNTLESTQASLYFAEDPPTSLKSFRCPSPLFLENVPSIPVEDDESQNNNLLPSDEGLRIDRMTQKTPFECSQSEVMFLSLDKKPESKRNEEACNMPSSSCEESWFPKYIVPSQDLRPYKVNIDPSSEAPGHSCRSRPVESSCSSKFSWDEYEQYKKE

Question: For `CN1C(=O)[C@@H](N2CCc3c(nn(Cc4ccccc4)c3C(N)=O)C2=O)COc2cc(Cl)ccc21` [Compound 10, (S)-2-benzyl-6-(8-chloro-5-methyl-4-oxo-2,3,4,5-tetrahydrobenzo[b][1,4]oxazepin-3-yl)-7-oxo-4,5,6,7-tetrahydro-2H-pyrazolo[3,4-c]pyridine-3-carboxamide], which remaining binding at 1 µM [1] is on record?
Answer: 82%

Question: And the remaining binding at 1 µM [2]?
Answer: 87%

Question: What about the remaining binding at 0.1 µM [3] of the same molecule?
Answer: 100%

Question: What about the remaining binding at 0.1 µM [4] of the same molecule?
Answer: 100%

Question: And the remaining binding at 1 µM [5]?
Answer: 94%

Question: And the remaining binding at 1 µM ([6]; 1000 nM)?
Answer: 100%

Question: And the remaining binding at 0.1 µM ([6]; compound concentration 100 nM, Entrez EPHA4)?
Answer: 99%

Question: What about the remaining binding at 0.1 µM [7] of the same molecule?
Answer: 87%

Question: And the remaining binding at 1 µM ([8]; 1000 nM)?
Answer: 100%

Question: And the remaining binding at 0.1 µM ([8]; compound concentration 100 nM, Entrez EGFR)?
Answer: 96%

Question: What about the remaining binding at 1 µM [9] of the same molecule?
Answer: 73%

Question: What about the remaining binding at 1 µM [10] of the same molecule?
Answer: 88%

Question: And the remaining binding at 0.1 µM [11]?
Answer: 79%

Question: What about the remaining binding at 1 µM [12] of the same molecule?
Answer: 86%

Question: And the remaining binding at 0.1 µM [13]?
Answer: 99%

Question: And the remaining binding at 0.1 µM [14]?
Answer: 100%

Question: And the remaining binding at 0.1 µM [15]?
Answer: 98%

Question: What about the remaining binding at 1 µM ([16]; 1000 nM) of the same molecule?
Answer: 100%

Question: What about the remaining binding at 0.1 µM ([16]; compound concentration 100 nM, Entrez EPHA3) of the same molecule?
Answer: 77%

Question: What about the remaining binding at 1 µM [17] of the same molecule?
Answer: 96%

Question: And the remaining binding at 1 µM [18]?
Answer: 84%

Question: What about the remaining binding at 1 µM [19] of the same molecule?
Answer: 86%

Question: What about the remaining binding at 1 µM [20] of the same molecule?
Answer: 82%

Question: What about the remaining binding at 1 µM [21] of the same molecule?
Answer: 90%

Question: What about the remaining binding at 1 µM ([22]; 1000 nM) of the same molecule?
Answer: 100%

Question: What about the remaining binding at 0.1 µM ([22]; compound concentration 100 nM, Entrez CDKL5) of the same molecule?
Answer: 100%

Question: What about the remaining binding at 1 µM ([23]; 1000 nM) of the same molecule?
Answer: 100%

Question: And the remaining binding at 0.1 µM ([23]; compound concentration 100 nM, Entrez CAMK1D)?
Answer: 92%

Question: And the remaining binding at 1 µM [24]?
Answer: 91%

Question: And the remaining binding at 1 µM [25]?
Answer: 91%

Question: What about the remaining binding at 1 µM [26] of the same molecule?
Answer: 84%

Question: What about the remaining binding at 0.1 µM [27] of the same molecule?
Answer: 100%

Question: And the remaining binding at 1 µM [28]?
Answer: 94%

Question: And the remaining binding at 0.1 µM [29]?
Answer: 93%

Question: And the remaining binding at 1 µM [30]?
Answer: 87%

Question: What about the remaining binding at 0.1 µM [31] of the same molecule?
Answer: 100%

Question: And the remaining binding at 1 µM [32]?
Answer: 92%

Question: What about the remaining binding at 1 µM [33] of the same molecule?
Answer: 87%

Question: And the remaining binding at 1 µM ([34]; 1000 nM)?
Answer: 100%

Question: What about the remaining binding at 0.1 µM ([34]; compound concentration 100 nM, Entrez IRAK3) of the same molecule?
Answer: 95%

Question: What about the remaining binding at 1 µM [35] of the same molecule?
Answer: 96%

Question: And the remaining binding at 1 µM [36]?
Answer: 76%
